“And” between values parts separate entries of the source, which are not always exact repeats. Equal values may be shown once. Records with an inconclusive call do not appear.
System: B6C3F1 mice, colon carcinoma 38 s.c., T/C
Assay: NCI In Vivo Anticancer Drug Screen. Data for tumor model Colon Carcinoma 38 (subcutaneous) in B6C3F1 mice
Conditions: endpoint: median tumor weight (est.), higher = larger tumour
Description: The antitumor activity of compounds was measured in mice bearing transplantable tumors. Survival or tumor size were measured and the results are expressed as the measurement made in the treated group (T) divided by the measurement made in the vehicle treated control group (C). The tumor model used in this assay is Colon Carcinoma 38 (subcutaneous) in B6C3F1 mice

[1] = dose: 50.0 mg/kg/injection, schedule: Q07DX002 (ip), vehicle: saline with Tween-80
[2] = dose: 4.0 mg/kg/injection, schedule: Q07DX002 (ip), vehicle: saline
[3] = dose: 8.0 mg/kg/injection, schedule: Q07DX002 (ip), vehicle: saline

CNC(=O)c1cccc2c(Nc3ccc(NS(C)(=O)=O)cc3OC)c3cccc(C)c3nc12
T/C (dose: 6.25 mg/kg/injection, schedule: Q07DX002 (ip), vehicle: water): 60 % of control
T/C (dose: 12.5 mg/kg/injection, schedule: Q07DX002 (ip), vehicle: water): 48 % of control
T/C (dose: 25.0 mg/kg/injection, schedule: Q07DX002 (ip), vehicle: water): 17 % of control
T/C (dose: 50.0 mg/kg/injection, schedule: Q07DX002 (ip), vehicle: water): 4 % of control

Cc1ccoc1
T/C (dose: 16.8 mg/kg/injection, schedule: Q03HX006 (ip), vehicle: saline with Tween-80): 75 % of control
T/C (dose: 33.33 mg/kg/injection, schedule: Q03HX006 (ip), vehicle: saline with Tween-80): 109 % of control
T/C (dose: 66.66 mg/kg/injection, schedule: Q03HX006 (ip), vehicle: saline with Tween-80): 114 % of control
T/C (dose: 133.33 mg/kg/injection, schedule: Q03HX006 (ip), vehicle: saline with Tween-80): 108 % of control

Cc1cc(Nc2ccc3c(c2)OCO3)c2cc3c(cc2n1)OCO3
T/C (dose: 50.0 mg/kg/injection, schedule: Q07DX002 (ip), vehicle: Klucel (hydroxypropylcellulose) (HPC)): 78 % of control and 103 % of control
T/C (dose: 100.0 mg/kg/injection, schedule: Q07DX002 (ip), vehicle: Klucel (hydroxypropylcellulose) (HPC)): 96 % of control and 113 % of control and 115 % of control

COc1ccc2cc1Oc1ccc(cc1)C[C@H]1c3cc(c(OC)cc3CCN1C)Oc1c(OC)c(OC)cc3c1[C@H](C2)N(C)CC3
T/C (dose: 150.0 mg/kg/injection, schedule: Q07DX002 (ip), vehicle: saline with Tween-80): 102 % of control and 106 % of control
T/C (dose: 300.0 mg/kg/injection, schedule: Q07DX002 (ip), vehicle: saline with Tween-80): 57 % of control
T/C (dose: 600.0 mg/kg/injection, schedule: Q07DX002 (ip), vehicle: saline with Tween-80): 29 % of control

O=C1N[C@@H]2C(=C[C@H](O)[C@@H](O)[C@H]2O)c2cc3c(c(O)c21)OCO3
T/C (dose: 1.25 mg/kg/injection, schedule: Q07DX002 (ip), vehicle: saline with Tween-80): 123 % of control
T/C (dose: 5.0 mg/kg/injection, schedule: Q07DX002 (ip), vehicle: saline with Tween-80): 60 % of control
T/C (dose: 10.0 mg/kg/injection, schedule: Q07DX002 (ip), vehicle: saline with Tween-80): 69 % of control
T/C (dose: 20.0 mg/kg/injection, schedule: Q07DX002 (ip), vehicle: saline with Tween-80): 43 % of control

N=c1c(C(=O)OCc2ccccc2)ncc(CCl)n1O
T/C [1]: 76 % of control
T/C (dose: 100.0 mg/kg/injection, schedule: Q07DX002 (ip), vehicle: saline with Tween-80): 107 % of control
T/C (dose: 400.0 mg/kg/injection, schedule: Q07DX002 (ip), vehicle: saline with Tween-80): 113 % of control
T/C (dose: 800.0 mg/kg/injection, schedule: Q07DX002 (ip), vehicle: saline with Tween-80): 72 % of control

CC(C)CCC(=O)c1ccoc1
T/C (dose: 0.25 mg/kg/injection, schedule: Q03HX006 (ip), vehicle: saline with Tween-80): 56 % of control
T/C (dose: 0.5 mg/kg/injection, schedule: Q03HX006 (ip), vehicle: saline with Tween-80): 56 % of control
T/C (dose: 1.0 mg/kg/injection, schedule: Q03HX006 (ip), vehicle: saline with Tween-80): 81 % of control
T/C (dose: 2.0 mg/kg/injection, schedule: Q03HX006 (ip), vehicle: saline with Tween-80): 87 % of control

C=C1COC(O)(C2OCOC(C3CC(=O)NC(=O)C3)C2O)C1C (stereo not drawn)
T/C (dose: 31.25 micrograms/kg/injection, schedule: Q07DX002 (ip), vehicle: water): 119 % of control

OC(C1CO1)C(O)C1CO1 (stereo not drawn)
T/C (dose: 2.0 mg/kg/injection, schedule: Q07DX002 (ip), vehicle: saline): 117 % of control
T/C [2]: 107 % of control
T/C [3]: 57 % of control

Cc1c(N)nc(C(CC(N)=O)NCC(N)C(N)=O)nc1C(=O)NC(C(=O)NC(C)C(O)CC(=O)NC(C(=O)NC(OC1OC(C)C(N)C(O)C1O)C(O)c1nc(-c2nc(C(=O)NCCCC(N)CC(=O)NCCCNCCCCN)cs2)cs1)C(C)O)C(OC1OC(CO)C(O)C(O)C1OC1OC(CO)C(O)C(OC(N)=O)C1O)c1cnc[nH]1 (stereo not drawn)
T/C [2]: 36 % of control
T/C [3]: 15 % of control
T/C (dose: 16.0 mg/kg/injection, schedule: Q07DX002 (ip), vehicle: saline): 8 % of control
T/C (dose: 32.0 mg/kg/injection, schedule: Q07DX002 (ip), vehicle: saline): 1 % of control

CC1c2ccccc2CC(CCN(C)C)c2ccccc21 (stereo not drawn)
T/C (dose: 12.5 mg/kg/injection, schedule: Q07DX002 (ip), vehicle: saline with Tween-80): 164 % of control
T/C (dose: 25.0 mg/kg/injection, schedule: Q07DX002 (ip), vehicle: saline with Tween-80): 84 % of control
T/C [1]: 108 % of control
T/C (dose: 200.0 mg/kg/injection, schedule: Q07DX002 (ip), vehicle: saline with Tween-80): 69 % of control

O.O.[NH-]C1CCCCC1[NH-].[Pt+2] (stereo not drawn)
T/C (dose: 10.0 mg/kg/injection, schedule: Q07DX002 (ip), vehicle: dextrose): 72 % of control
T/C (dose: 20.0 mg/kg/injection, schedule: Q07DX002 (ip), vehicle: dextrose): 60 % of control
T/C (dose: 40.0 mg/kg/injection, schedule: Q07DX002 (ip), vehicle: dextrose): 29 % of control
T/C (dose: 80.0 mg/kg/injection, schedule: Q07DX002 (ip), vehicle: dextrose): 16 % of control and 17 % of control

CC1CCC(NC(=O)N(CCCl)N=O)CC1 (stereo not drawn)
T/C (dose: 4.0 mg/kg/injection, schedule: Q07DX002 (ip), vehicle: Klucel (hydroxypropylcellulose) (HPC)): 101 % of control
T/C (dose: 8.0 mg/kg/injection, schedule: Q07DX002 (ip), vehicle: Klucel (hydroxypropylcellulose) (HPC)): 69 % of control
T/C (dose: 16.0 mg/kg/injection, schedule: Q07DX002 (ip), vehicle: Klucel (hydroxypropylcellulose) (HPC)): 34 % of control
T/C (dose: 32.0 mg/kg/injection, schedule: Q07DX002 (ip), vehicle: Klucel (hydroxypropylcellulose) (HPC)): 17 % of control

S=P(N1CC1)(N1CC1)N1CC1
T/C (dose: 3.0 mg/kg/injection, schedule: Q07DX003 (ip), vehicle: saline): 58 % of control
T/C (dose: 6.0 mg/kg/injection, schedule: Q07DX003 (ip), vehicle: saline): 57 % of control
T/C (dose: 12.0 mg/kg/injection, schedule: Q07DX003 (ip), vehicle: saline): 23 % of control

COC(=O)NC1C(C)OC(OC2C/C=C(/C)C3C=CC4C(OC5CC(OC6CCC(OC7CC(O)C(OC8CCC(O)C(C)O8)C(C)O7)C(C)O6)C(OC(C)=O)C(C)O5)C(C)CC(C)C4C3(C)/C(O)=C3/C(=O)OC4(CC(C=O)=CC(O)C4/C=C\2C)C3=O)CC1(C)[N+](=O)[O-] (stereo not drawn)
T/C (dose: 2.5 mg/kg/injection, schedule: Q07DX002 (ip), vehicle: water): 86 % of control
T/C (dose: 5.0 mg/kg/injection, schedule: Q07DX002 (ip), vehicle: water): 96 % of control
T/C (dose: 10.0 mg/kg/injection, schedule: Q07DX002 (ip), vehicle: water): 89 % of control
T/C (dose: 20.0 mg/kg/injection, schedule: Q07DX002 (ip), vehicle: water): 82 % of control

CCOC(=O)C(N)C[S][Sn]([CH3])([CH3])[Cl] (stereo not drawn)
T/C (dose: 6.25 mg/kg/injection, schedule: Q07DX002 (ip), vehicle: saline): 123 % of control
T/C (dose: 12.5 mg/kg/injection, schedule: Q07DX002 (ip), vehicle: saline): 61 % of control
T/C (dose: 25.0 mg/kg/injection, schedule: Q07DX002 (ip), vehicle: saline): 90 % of control
T/C (dose: 50.0 mg/kg/injection, schedule: Q07DX002 (ip), vehicle: saline): 110 % of control

OCCO
T/C (dose: 1.0 % in 0.5 ml injection vol, schedule: Q07DX002 (ip), vehicle: water): 181 % of control
T/C (dose: 2.0 % in 0.5 ml injection vol, schedule: Q07DX002 (ip), vehicle: water): 160 % of control
